According to patent publication US8445678B2, “2-quinoxalinol salen compounds and uses thereof” (Auburn University, priority 2008, dated 2013):

Columns and labels:
[1] = Catalytic oxidation of diphenylmethane into benzophenone; conditions: yields by flash column chromatography and mass calculation
Procedure: The conversion of diphenylmethane into benzophenone was selected to test the activity of catalyst salquCu 1 and to develop optimized conditions, Based on previous reports with salphCu, three equivalents of H2O2 in CH3CN as solvent with 1% by molar of the catalyst salquCu 1 was heated to reflux temperature for 18 hours. Under these conditions, the isolated yield of benzophenone was only 27%. Six experimental factors were considered to optimizing this reaction: oxidant (FIG. 7), catalyst ratio (FIG. 8), reaction time (FIG. 9), oxidant ratio (FIG. 10), solvent, and types of catalyst (FIG. 11 and Table 10).
First, four oxidants were tested using CH3CN as solvent in each case, with 1% of catalyst 1 at reflux temperature for 18 hours. […] When tert-butylhydroperoxide in water was used as the oxidant, the yield of product, benzophenone, was around 80%. (FIG. 7) The use of tert-butylhydroperoxide in decane allows for a uniform or monophasic organic soluble catalyst system, and thus further improves the optimal yield. […]
The synthesis of the products depicted in Table 11 began with the combination of catalyst 1 (0.02 mmol, 15.2 mg) and 2.0 mmol of starting material (aryl methylene compound) dissolved in 2.0 mL acetonitrile with 1.0 mL tert-butylhydroperoxide decane solution (6.0 mmol). The reaction mixture was allowed to stir for 18 hours at 70° C. and monitored by TLC. […]

[2] = Stability of ligands, imines, intermediates and catalysts (temperature, air, moisture, solvents); type: physicochemical; conditions: exposure to air

Compound: Nc1cc2ncc(O)nc2cc1N [Intermediate 1e]
- Yield (%) of benzophenone, optimized conditions with different salquCu catalysts [1]: 90%
- stability in air / atmospheric conditions [2]: not stable and was found to decompose on exposure to air
